Test results as given in article PMC9788418, “Design, Synthesis and Biological Evaluation of Syn and Anti-like Double Warhead Quinolinones Bearing Dihydroxy Naphthalene Moiety as Epidermal Growth Factor Receptor Inhibitors with Potential Apoptotic Antiproliferative Action” (Molecules, 2022).

How the values were obtained:
[1] = test system: Bax; experiment: Bax activation assay; format: cell-based, human; settings: for Bax Conc: A-549
Experimental: 8, and lysed with Cell Extraction Buffer. This lysate was diluted in Standard Diluent Buffer over the range of the assay and measured for human active caspase-8 content. (cells are Plated in a density of 1.2 – 1.8 × 10,000 cells/well in a volume of 100µl complete growth medium + 100 ul of the tested compound per well in a 96-well plate for 24 hours before the enzyme assay for […].). […]
4.2.4. Bax activation assay
Bring all reagents, except the human Bax-α Standard, to room temperature for at least 30 minutes prior to opening. The human Bax-α Standard solution should not be left at room temperature for more than 10 minutes. All standards, controls and samples should be run in duplicate. Refer to the Assay Layout Sheet to determine the number of wells to be used and put any remaining wells with the desiccant back into the pouch and seal the ziploc. Store unused wells at 4 °C. Pipet 100 μL of Assay Buffer into the S0 (0 pg/mL standard) wells. Pipet 100 μL of Standards #1 through #6 into the appropriate wells. Pipet 100 μL of the Samples into the appropriate wells. Tap the plate gently to mix the contents. Seal the plate and incubate at room temperature on a plate shaker for 1 hour at ~500 rpm. Empty the contents of the wells and wash by adding 400 μL of wash solution to every well.
Repeat the wash 4 more times for a total of 5 washes. After the final wash, empty or aspirate the wells and firmly tap the plate on a lint free paper towel to remove any remaining wash buffer. Pipet 100 μL of yellow Antibody into each well, except the Blank. Seal the plate and incubate at room temperature on a plate shaker for 1 hour at ~500 […]
wells and firmly tap the plate on a lint free paper towel to remove any remaining wash buffer. Add […]
100 μL of blue Conjugate to each well, except the Blank. Seal the plate and incubate at room temperature on a plate shaker for 30 minutes at ~500 rpm. Empty the contents of the wells and wash by adding 400 μL of wash solution to every well. Repeat the wash 4 more times for a total of 5 washes. After the final wash, empty or aspirate the wells and firmly tap the plate on a lint free paper towel to remove any remaining wash buffer. Pipet 100 μL of Substrate Solution into each well.
Incubate for 30 minutes at room temperature on a plate shaker at ~500 rpm. Pipet 100 μL Stop Solution to each well. Blank the plate reader against the Blank wells, read the optical density at 450 nm. Calculate the average net Optical Density (OD) bound for each standard and sample by subtracting the average Blank OD from the average OD for each standard and sample. Using linear graph paper, plot the Average Net OD for each standard versus Bax concentration in each standard.
Approximate a straight line through the points. The concentration of Bax in the unknowns can be determined by interpolation. […]

[2] = test system: caspase-3; experiment: Caspase-3 activation assay
Experimental: record autophosphorylation level, EGFR kinase assay was carried out based on DELFIA/Time-
Resolved Fluorometry. The compounds were first dissolved in DMSO absolute, after dilution to
Each compound (10 µL) was incubated
with recombinant enzyme (10 µL, 5 ng for EGFR, 1:80 dilution in 100 mM HEPES) for 10 min at
25 °C, after the addition of 5X buffer (10 µL, containing 2 mM MnCl2, 100 µM Na3VO4, 20 mM HEPES and 1 mM DTT) and ATP-MgCl2 (20 µL, containing 0.1 mM ATP and 50 mM MgCl2) and
incubation for 1h. The negative and positive controls were included in each plate by the incubation
of enzyme either with or without ATP-MgCl2. The liquid was removed after incubation and the plates
were washed thrice using wash buffer. Europium-tagged antiphosphotyrosine antibody (75 µL, 400
ng) was added to each well followed by incubation of 1h and then washing of the plates using buffer.
The enhancement solution was added to each well and the signal was recorded at excitation and
The autophosphorylation percentage inhibition by compounds was calculated using the following equation:

[3] = test system: Cytochrome C; experiment: Cytochrome C assay; format: cell-based, human
Experimental: The concentration of Cytochrome c in a cell is crucial for activating caspases and starting the intrinsic apoptosis process. […]
(§1) plate cover and incubate at room temperature, on a microplate shaker at 100 rpm if available, for 1 hour. Remove plate cover and empty the wells. Wash microwell strips 3 times as described in step 2.
(§2) Proceed to the next step. Pipette 100 μl of mixed TMB Substrate Solution to all wells, including the […]
(§3) available on a rotator set at 100 rpm. Avoid direct exposure to intense light. The point, at which the substrate reaction is stopped, is often determined by the ELISA reader. Many ELISA readers record absorbance only up to 2.0 O.D. Therefore, the color development within individual microwells must be watched by the person running the assay and the substrate reaction stopped before positive wells are no longer properly detectable. Stop the enzyme reaction by quickly pipetting 100 μL of Stop Solution into each well, including the blank wells. It is important that the Stop Solution is spread quickly and uniformly throughout the microwells to completely inactivate the enzyme. Results must be read immediately after the Stop Solution is added or within one hour if the microwell strips are stored at 2 - 8°C in the dark. Read absorbance of each microwell on a spectrophotometer using 450 nm as the primary wave length.
4.2.6. Cytochrome C assay […]
cytochrome C, and lysed with Cell Extraction Buffer. This lysate was diluted in Standard Diluent Buffer over the range of the assay and measured for cytochrome C content. (Cells are Plated in cells/well in a volume of 100µl complete growth medium + 100 µl of the tested compound + 50 µl of 1X biotin conjugated antibody+ 100 µl of 1X streptavidin-HRP+ 100 µL TMB substrate soln of per well in a 96-well plate for 24 hours before assay).
4.3. Statistical analysis
Computerized Prism 5 program was used to statistically analyzed data using one-way ANOVA test followed by Tukey’s as post ANOVA for multiple comparison at P ≤.05. Data were presented as […]

[4] = test system: caspase-9; experiment: Caspase-9 level assay; format: cell-based, human
Experimental: The impact of compounds 4a and 4b on caspase-8 and caspase-9 was also assessed to clarify how compounds 4a and 4b induce apoptosis by activating the intrinsic or extrinsic route.

[5] = test system: Bcl-2; experiment: Bcl-2 inhibition assay; format: cell-based, human
Experimental: 4.2.5. Bcl-2inhibition assay
Mix all reagents thoroughly without foaming before use. Wash the microwells twice with approximately 300 μL Wash Buffer per well with thorough aspiration of microwell contents between washes. Take caution not to scratch the surface of the microwells. After the last wash, empty the wells and tap microwell strips on absorbent pad or paper towel to remove excess Wash Buffer. Use the microwell strips immediately after washing or place upside down on a wet absorbent paper for not […]
longer than 15 minutes. […] Add 100 μL of Sample Diluent in duplicate to all standard wells and to the blank wells. Prepare standard (1:2 dilution) in duplicate ranging from 32 ng/mL to 0.5 ng/mL. Add 100 μL of Sample Diluent, in duplicate, to the blank wells. Add 80 μL of Sample Diluent, in duplicate, to the sample wells. Add 20 μL of each Sample, in duplicate, to the designated wells. Add 50 μL of diluted biotin-conjugate to all wells, including the blank wells. Cover […]
Remove plate cover and empty the wells. […]
as §1, §2
as §3, with “length. […]” for “length.”

[6] = test system: caspase-8; experiment: Caspase-8 activation assay; format: cell-based, human
[7] = A-549, vs control untreated cells

COc1cccc2c1C(=O)c1c(O)c3c(c(O)c1C2=O)C[C@@](O)(C(=O)CO)C[C@@H]3O[C@H]1C[C@H](N)[C@H](O)[C@H](C)O1 [Doxorubicin, reference compound]
Bax Conc [1]: 276.20 pg/mL | Bax Fold Change [1, 7]: 33 | Bax Conc ([1]; listed as doxorubicin): 276 pg/mL | Caspase-3 Conc ([2]; A-549): 503.25 ± 4.50 pg/mL | Caspase-3 Fold Change [2, 7]: 7.70 | Cytochrome C Conc ([3]; A-549): 0.60 ng/mL | Cytochrome C Fold Change ([3]; A-549, vs control): 12 | Caspase-9 Conc [4]: 16.25 ng/mL | Caspase-9 Fold Change ([4]; vs control cells): 17.00 | Bcl-2 Conc ([5]; A-549): 1.98 ng/mL | Bcl-2 Fold Reduction ([5]; A-549, vs control): 2.5 | Caspase-8 Conc [6]: 1.80 ng/mL | Caspase-8 Fold Change ([6]; vs control cells): 9
